From patent US9115072B2, “Compounds and method for reducing uric acid” (WELLSTAT THERAPEUTICS CORPORATION, priority 2008, dated 2015)
Counter-ions that a name gives are not always drawn.

Biological target: T1, human URAT1 (Homo sapiens, UniProt Q96S37)
T1 construct: The full-length hURAT1 cDNA was obtained from the vector pCMV6-XL5 and subcloned into the expression vector pCMV6-Neo
T1 sequence (Q96S37 1-553): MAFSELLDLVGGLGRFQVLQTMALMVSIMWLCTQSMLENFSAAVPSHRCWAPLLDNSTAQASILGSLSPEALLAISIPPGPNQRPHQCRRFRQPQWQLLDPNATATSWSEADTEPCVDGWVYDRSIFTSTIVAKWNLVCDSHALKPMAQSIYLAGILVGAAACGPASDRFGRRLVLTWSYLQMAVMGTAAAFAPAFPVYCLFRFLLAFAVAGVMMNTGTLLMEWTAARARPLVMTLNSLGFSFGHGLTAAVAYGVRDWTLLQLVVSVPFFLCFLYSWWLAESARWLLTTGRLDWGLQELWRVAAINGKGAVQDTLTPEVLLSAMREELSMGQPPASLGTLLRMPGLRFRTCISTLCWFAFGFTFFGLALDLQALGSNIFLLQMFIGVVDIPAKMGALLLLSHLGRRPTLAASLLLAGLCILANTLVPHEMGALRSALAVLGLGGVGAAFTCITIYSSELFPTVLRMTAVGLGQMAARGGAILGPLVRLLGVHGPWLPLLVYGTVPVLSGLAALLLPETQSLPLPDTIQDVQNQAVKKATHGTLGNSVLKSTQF
Test: URAT1 inhibition assay, [8-14C] urate uptake in hURAT1-HEK cells
Type: cell-based
Settings: 50 μM [8-14C] urate; for inhibition at 10 µM: drug concentration typically 10 micromolar, read-out: % of Inhibition (uric acid uptake)
Protocol: A suitable assay involves transfection of cells (e.g. human embryonic kidney cells; “HEK”) with a vector encoding human URAT1, followed by determination of the ability of transfected cells to take up radiolabeled uric acid. The activity of compounds as URAT1 inhibitors is evaluated by their ability to block uric acid uptake by transfected cells.
Urate (50-60 mCi/mmol; American Radio Chemicals, Cat. No. ARC0513).
Plasmid vector pCMV6-XL5 containing hURAT1 cDNA (Cat. No. SC125624) and the expression vector pCMV6-Neo (Cat. No. pCMVNEO) were obtained from OriGene Technologies, Inc. The full-length hURAT1 cDNA was obtained from the vector pCMV6-XL5 and subcloned into the expression vector pCMV6-Neo to create the hURAT1 expression plasmid pCMV6-hURAT1. The sequences were verified by automatic DNA sequencing.
For transfection experiments, cells were plated on 60 mm dishes in 1 ml media per dish. […] Stable transfectants expressing hURAT1 (herein after referred as hURAT1-HEK cells) or cells having only the expression vector pCMV6-Neo (herein after referred as mock-HEK cells) were verified using reverse transcription polymerase chain reaction (RT-PCR) methods.
Before the uptake assay started, the culture medium was removed and the cells were incubated for 5 min in 0.6 ml of HBSS. After that HBSS was removed, the prepared reaction solutions were added into each well and incubated for 5 min at room temperature. Then the reaction solution was removed, cells were washed twice with 0.6 ml of cold HBSS and lysed with 0.2 ml of 0.1 M NaOH for 20 min. […] Test compounds were dissolved in DMSO and the same concentration of DMSO was added into the wells of mock-HEK cells and the hURAT1-HEK cells that didn't contain test compounds. For each test compound, the uptake assay was performed 2 times and carried out in triplicate. Urate uptake of the cells for each test condition was presented as the average percent inhibition in comparison to the DMSO control. The radioactivity values obtained for the wells that contained DMSO were taken as 100% uptake of the cells. The observed concentration-percent inhibition data were fitted to a sigmoidal concentration-effect model, where: IC50^Slope=[(100*Conc^Slope)/% Inhibition]−Conc^Slope
Additional drug concentrations were tested for determination of IC-50 values for some compounds (Table 6).

inhibition at 10 µM	IC50	SMILES
3.7%		COc1ccccc1COc1ccc(C(=O)CCC(=O)O)cc1 [AB, 4-(4-(2-Methoxybenzyloxy)phenyl)-4-oxobutanoic acid]
41.3%		O=C(O)CCC(=O)c1ccc(OCc2ccccn2)cc1 [AF, 4-oxo-4-(4-(pyridin-2-ylmethoxy)phenyl)butanoic acid]
5.99%		O=C(O)CCC(=O)c1ccc(OCc2ccccc2)cc1 [AG, 4-(4-(Benzyloxy)phenyl)-4-oxobutanoic acid]
26.8%		O=C(O)CCC(=O)c1ccc(OCc2c(F)cccc2F)cc1 [AH, 4-(4-(2,6-Difluorobenzyloxy)phenyl)-4-oxobutanoic acid]
2.3%		O=C(O)CCC(=O)c1ccc(OCc2ccccc2Cl)cc1 [AI, 4-(4-(2-Chlorobenzyloxy)phenyl)-4-oxobutanoic acid]
0%		CN(CCOc1ccc(C(=O)CCC(=O)O)cc1)Cc1ccccc1F [AM, 4-(4-(2-((2-Fluorobenzyl)(methyl)amino)ethoxy)phenyl)-4-oxobutanoic acid hydrochloride]
54.4%		Cc1ccccc1COc1cccc(C(=O)CCC(=O)O)c1 [AN, 4-(3-(2-Methylbenzyloxy)phenyl)-4-oxobutanoic acid]
7.95%		Cc1ccc(C)c(COc2ccc(C(=O)CCC(=O)O)cc2)c1 [AT, 4-(4-(2,5-Dimethylbenzyloxy)phenyl)-4-oxobutanoic acid]
61.9%		O=C(O)CCC(=O)c1cccc(OCc2c(F)cccc2F)c1 [AW, 4-(3-(2,6-Difluorobenzyloxy)phenyl)-4-oxobutanoic acid]
8.9%		O=C(O)CCC(=O)c1ccc(OCc2ccccc2C(F)(F)F)cc1 [AY, 4-(4-(2-Trifluoromethylbenzyloxy)phenyl)-4-oxobutanoic acid]
62.4%		O=C(O)CCC(=O)c1cccc(OCC2CC2)c1 [BH, 4-(3-(Cyclopropylmethoxy)phenyl)-4-oxobutanoic acid]
81.8%		Cc1cccc(F)c1COc1cccc(C(=O)CCC(=O)O)c1 [BJ, 4-(3-(2-Fluoro-6-methylbenzyloxy)phenyl)-4-oxobutanoic acid]
22.2%		Cc1cccc(C)c1COc1ccc(C(=O)CCC(=O)O)cc1 [BM, 4-(4-(2,6-Dimethylbenzyloxy)phenyl)-4-oxobutanoic acid]
76.5%	4390 nM	Cc1cccc(C)c1COc1cccc(C(=O)CC(C)(C)C(=O)O)c1 [BP, 4-(3-(2,6-Dimethylbenzyloxy)phenyl)-2,2-dimethyl-4-oxobutanoic acid]
28.6%		Cc1cccc(C)c1COc1cccc(CCCC(=O)O)c1 [BS, 4-(3-(2,6-Dimethylbenzyloxy)phenyl)butanoic acid]
51.8%		COc1cc(C(=O)CCC(=O)O)ccc1OCc1c(C)cccc1C [BT, 4-(4-(2,6-Dimethylbenzyloxy)-3-methoxyphenyl)-4-oxobutanoic acid]
63.5%		Cc1cccc(C)c1COc1cccc(C(=O)CCCC(=O)O)c1 [CD, 5-(3-(2,6-Dimethylbenzyloxy)phenyl)-5-oxopentanoic acid]
96.5%	530 nM	Cc1cccc(C)c1COc1cccc(CC(=O)O)c1 [CF, 3-(2,6-Dimethylbenzyloxy)phenylacetic acid]
88%	2690 nM	Cc1cccc(C)c1COc1cccc(CCCCC(=O)O)c1 [CK, 5-(3-(2,6-Dimethylbenzyloxy)phenyl)pentanoic acid]
89%	1010 nM	Cc1cccc(C)c1COc1cccc(CCC(=O)O)c1 [CM, 3-(3-(2,6-Dimethylbenzyloxy)phenyl)propanoic acid]
84.8%	1330 nM	Cc1cccc(C)c1COc1cccc(C(=O)C(=O)O)c1 [CQ, 2-(3-(2,6-Dimethylbenzyloxy)phenyl)-2-oxoacetic acid]

inhibition at 10 µM	IC50	SMILES
60.6%		Cc1cccc(C)c1COc1cccc([C@H](O)CCC(=O)O)c1 [CR, 4-(3-(2,6-Dimethylbenzyloxy)-phenyl)-4(R)-hydroxybutanoic acid]
45.4%		O=C(O)Cc1cccc(OCc2ccc(C(F)(F)F)cc2C(F)(F)F)c1 [DN, 2-(3-(2,4-bis(trifluoromethyl)benzyloxy)phenyl)acetic acid]
80.3%		Cc1cccc(C)c1COc1ccc(CC(=O)O)cc1 [DO, 2-(4-(2,6-Dimethylbenzyloxy)phenyl)acetic acid]
60.5%		Cc1cccc(C)c1C(=O)Oc1cccc(C(=O)CCC(=O)O)c1 [DP, 4-(3-(2,6-Dimethylbenzoyloxy)phenyl)-4-oxobutanoic acid]
99.4%	180 nM	COc1ccc(CC(=O)O)cc1OCc1c(C)cccc1C [DQ, 2-(3-(2,6-Dimethylbenzyloxy)-4-methoxyphenyl)acetic acid]
68.3%		O=C(O)Cc1cccc(OCc2c(F)cccc2F)c1 [DR, 2-(3-(2,6-Difluorobenzyloxy)phenyl)acetic acid]
75%		O=C(O)CCC(=O)c1cccc(OCc2c(Cl)cccc2Cl)c1 [DS, 4-(3-(2,6-Dichlorobenzyloxy)phenyl)-4-oxobutanoic acid]
89.1%		Cc1cccc(C)c1COc1cccc(C(C)C(=O)O)c1 (stereo not drawn) [DT, 2-(3-(2,6-Dimethylbenzyloxy)phenyl)propanoic acid]
30.5%		O=C(O)Cc1cccc(OCc2ccc(C(F)(F)F)cc2)c1 [DU]
79.5%	890 nM	CCC(C(=O)O)c1cccc(OCc2c(C)cccc2C)c1 (stereo not drawn) [DV, 2-(3-(2,6-Dimethylbenzyloxy)phenyl)butanoic acid]
54%		Cc1cc(C)cc(COc2cccc(CC(=O)O)c2)c1 [DW, 2-(3-(3,5-Dimethylbenzyloxy)phenyl)acetic acid]
64%		Cc1ccc(COc2cccc(CC(=O)O)c2)c(C)c1 [DX, 2-(3-(2,4-Dimethylbenzyloxy)phenyl)acetic acid]
85.2%	1880 nM	COc1cccc(OC)c1COc1cccc(CC(=O)O)c1 [DY, 2-(3-(2,6-Dimethoxylbenzyloxy)phenyl)acetic acid]
26.9%		O=C(O)Cc1cccc(OCc2ccccc2)c1 [DZ, 2-(3-(Benzyloxy)phenyl)acetic acid]
49%		Cc1cccc(C)c1COc1ccccc1CC(=O)O [EA, 2-(2-(2,6-Dimethylbenzyloxy)phenyl)acetic acid]
21.6%		COC(=O)CC(=O)c1cccc(OCc2c(C)cccc2C)c1 [EB, Methyl 3-(3-(2,6-dimethylbenzyloxy)phenyl)-3-oxopropanoate]
	330 nM	Cc1cccc(C)c1COc1cccc(C(C)C(=O)O)c1 (stereo not drawn) [EC, 2-(3-(2,6-Dimethylbenzyloxy)phenyl)propanoic acid]
90.1%		Cc1cccc(C)c1COc1cccc(C(C)(C)C(=O)O)c1 [EE, 2-(3-(2,6-Dimethylbenzyloxy)phenyl)-2-methylpropanoic acid]
90.3%	590 nM	Cc1cccc(C)c1COc1cccc(C2(C(=O)O)CC2)c1 [EF, 1-(3-(2,6-Dimethylbenzyloxy)phenyl)cyclopropanecarboxylic acid]
89.7%		Cc1cccc(Cl)c1COc1cccc(CC(=O)O)c1 [EG, 2-(3-(2-Chloro-6-methylbenzyloxy)phenyl)acetic acid]
93%		Cc1cccc(C)c1COc1cc(CC(=O)O)ccc1F [EI, 2-(3-(2,6-Dimethylbenzyloxy)-4-fluorophenyl)acetic acid]
